In US12590099B2, “Inhibitors of histone deacetylase useful for the treatment or prevention of HIV infection” (Merck Sharp & Dohme LLC, priority 2018, dated 2026):
Like-named read-outs stand apart in the source and are kept apart here.

Key:
[1] = test system: KARN cells (Jurkat 2C4); test: cells; format: cell-based
Summary of the method: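 Luminescence (Steady-Glo, 10 min, room temperature) measured next day in KARN Jurkat 2C4 cells given compounds at up to 40 μM final with 0.4% DMSO. Percent activation normalised to DMSO (0%) and 2 μM SAHA (100%), fitted by 4-parameter curve.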

[2] = target: T1, Recombinant human HDAC3/SMRT heterodimer (Homo sapiens, UniProt O15379); test: Human HDAC enzyme inhibitor Fluor-de-Lys assay, HDAC3/SMRT; format: biochemical; conditions: recombinant human HDAC3/SMRT, Fluor-de-Lys assay
T1 construct: FLAG (C); made in house

[3] = target: T2, Recombinant human HDAC1 (Homo sapiens, UniProt Q13547); test: Human HDAC enzyme inhibitor Fluor-de-Lys assay, HDAC1; format: biochemical; conditions: recombinant human HDAC1, Fluor-de-Lys assay
T2 construct: FLAG (C); made in house
Experimental: (§1) Human HDAC Enzyme Inhibitor Fluor-De-Lys Assay
(§2) Recombinant human HDAC8 (BML-SE145-0100) and HDAC10 (BML-SE559-0050) enzymes, HDAC substrates BML-KI104 and BML-KI178, and HDAC developer solutions BML-KI105 and BML-KI176 were purchased from Enzo Life Sciences. […] HDAC inhibitor suberoylanilide hydroxamic acid (SAHA) was obtained from Indofine and trichostatin A (TSA) was obtained from Sigma-Aldrich.
(§3) Recombinant human HDAC1, HDAC2, and HDAC3/SMRT heterodimer were prepared by Merck Research Laboratories. […] The eluted protein was then passed over an anti-HDAC1 immunoaffinity column to remove any complexes containing HDAC1. […]
(§4) The histone deacetylase activities of HDAC1, HDAC2, HDAC3, HDAC6, and HDAC8 were measured in modified FLUOR DE LYS assays in 384-well format. In this assay, HDAC enzymes are initially incubated with an ε-acetyl (or -trifluoroacetyl)-L-lysine-containing substrate with a C-terminal amide having aminomethylcoumarin as the amine component. HDACs cleave the ε-acetyl group, rendering the resulting product susceptible to AMC cleavage by trypsin. The released AMC is then detected by its fluorescence.
(§5) The HDAC3/SMRT assay employed buffer B, consisting of 20 mM HEPES, pH 8.0, 1 mM MgCl2, 50 mM NaCl, 2.7 mM KCl, 0.05% BSA, 0.005% Tween 20, and 10 μM IP4. […] The HDAC8 assay employed buffer D, consisting of 20 mM HEPES, pH 8.0, 1 mM MgCl2, 100 mM NaCl, 20 mM KCl, 0.10% n-octyl-β-D-glucoside (Anatrace) and 0.05% BSA. All steps were performed at room temperature (23° C.). The assay was performed by pre-incubating serial dilutions of test compounds with the target HDAC prior to initiation with substrate. Each compound was titrated in a 10-point dose response, using a 1:3 fold dilution scheme, with 0.15 ul of solution added by ECH0555 to the plate, followed by the addition of 20 μl of the appropriate HDAC isoform diluted in appropriate assay buffer. […] Final conditions used for each assay were: 1. HDAC 1, 0.3 nM total enzyme, 20 μM substrate BML-KI104; 2. […] HDAC 3/SMRT, 0.3 nM total enzyme, 20 μM substrate BML-KI104; 4. […] The reactions were stopped and developed by addition of 30 ul of HDAC developer solution containing a saturating level of HDAC inhibitor as follows: 1.

[4] = target: T3, Recombinant human HDAC8 (Homo sapiens, UniProt Q9BY41); test: Human HDAC enzyme inhibitor Fluor-de-Lys assay, HDAC8; format: biochemical
T3 construct: purchased Enzo Life Sciences BML-SE145-0100
T3 sequence (Q9BY41 1-377): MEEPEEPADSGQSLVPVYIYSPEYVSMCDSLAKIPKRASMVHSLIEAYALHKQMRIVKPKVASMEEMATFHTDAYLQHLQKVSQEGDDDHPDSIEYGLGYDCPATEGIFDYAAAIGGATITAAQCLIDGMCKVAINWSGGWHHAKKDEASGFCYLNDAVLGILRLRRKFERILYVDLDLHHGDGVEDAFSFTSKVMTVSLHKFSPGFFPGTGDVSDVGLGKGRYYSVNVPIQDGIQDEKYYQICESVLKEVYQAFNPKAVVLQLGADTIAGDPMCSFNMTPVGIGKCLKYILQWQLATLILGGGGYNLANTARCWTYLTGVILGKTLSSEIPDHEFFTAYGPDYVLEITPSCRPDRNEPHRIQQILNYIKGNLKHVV

[5] = target: T4, Recombinant human HDAC2 (Homo sapiens, UniProt Q92769); test: Human HDAC enzyme inhibitor Fluor-de-Lys assay, HDAC2; format: biochemical
T4 construct: Full length human HDAC2-FLAG was expressed in baculovirus infected Sf9 cells; FLAG (C); made in house; host or cells: Sf9 (baculovirus)
Experimental: as §1, §2, §3, §4, §5

[6] = target: T5, HDAC6 (Homo sapiens, UniProt Q9UBN7); test: Human HDAC enzyme inhibitor Fluor-de-Lys assay, HDAC6; format: biochemical
T5 sequence (Q9UBN7 1-1215): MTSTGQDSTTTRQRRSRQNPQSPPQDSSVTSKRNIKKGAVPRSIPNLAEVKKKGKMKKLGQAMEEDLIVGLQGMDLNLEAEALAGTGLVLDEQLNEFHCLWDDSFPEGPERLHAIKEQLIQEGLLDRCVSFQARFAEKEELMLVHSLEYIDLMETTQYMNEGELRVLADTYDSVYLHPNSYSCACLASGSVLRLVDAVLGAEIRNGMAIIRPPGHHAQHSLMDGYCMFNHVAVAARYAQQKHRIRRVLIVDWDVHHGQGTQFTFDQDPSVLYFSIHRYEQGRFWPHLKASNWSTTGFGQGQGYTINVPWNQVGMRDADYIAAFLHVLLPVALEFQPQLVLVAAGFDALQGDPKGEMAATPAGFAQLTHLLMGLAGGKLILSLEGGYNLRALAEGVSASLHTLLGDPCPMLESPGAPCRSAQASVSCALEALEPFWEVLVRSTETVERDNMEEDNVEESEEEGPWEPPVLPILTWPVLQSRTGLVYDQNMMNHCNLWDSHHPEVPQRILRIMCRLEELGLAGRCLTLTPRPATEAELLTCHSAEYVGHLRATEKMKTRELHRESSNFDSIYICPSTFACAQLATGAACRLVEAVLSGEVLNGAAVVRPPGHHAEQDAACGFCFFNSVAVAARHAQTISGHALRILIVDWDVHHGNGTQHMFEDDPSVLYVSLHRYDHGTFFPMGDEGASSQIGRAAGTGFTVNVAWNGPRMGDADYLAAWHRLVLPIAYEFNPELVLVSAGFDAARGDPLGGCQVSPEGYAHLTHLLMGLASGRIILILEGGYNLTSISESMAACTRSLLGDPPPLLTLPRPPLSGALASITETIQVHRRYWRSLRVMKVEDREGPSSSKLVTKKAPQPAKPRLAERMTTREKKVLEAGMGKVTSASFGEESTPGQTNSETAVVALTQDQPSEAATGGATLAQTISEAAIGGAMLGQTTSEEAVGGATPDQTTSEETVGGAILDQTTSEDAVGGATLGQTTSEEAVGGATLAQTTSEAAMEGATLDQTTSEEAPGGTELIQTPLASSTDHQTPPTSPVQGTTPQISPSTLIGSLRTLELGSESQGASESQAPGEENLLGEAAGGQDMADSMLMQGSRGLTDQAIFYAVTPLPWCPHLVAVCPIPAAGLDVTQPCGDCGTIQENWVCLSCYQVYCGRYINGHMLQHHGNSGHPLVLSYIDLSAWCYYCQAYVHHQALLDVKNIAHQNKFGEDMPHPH

[7] = Homo sapiens, Jurkat, read-out: Karn EC50 (nM) 0.1% NHS, 0.1% normal human serum, luciferase induction, 100% = 2 μM SAHA
[8] = recombinant human HDAC8, Fluor-de-Lys assay
[9] = recombinant human HDAC2, Fluor-de-Lys assay
[10] = Homo sapiens, Jurkat, read-out: Karn EC50 (nM) 5% NHS, 5% normal human serum, luciferase induction, 100% = 2 μM SAHA

T2 sequence (Q13547 whole entry): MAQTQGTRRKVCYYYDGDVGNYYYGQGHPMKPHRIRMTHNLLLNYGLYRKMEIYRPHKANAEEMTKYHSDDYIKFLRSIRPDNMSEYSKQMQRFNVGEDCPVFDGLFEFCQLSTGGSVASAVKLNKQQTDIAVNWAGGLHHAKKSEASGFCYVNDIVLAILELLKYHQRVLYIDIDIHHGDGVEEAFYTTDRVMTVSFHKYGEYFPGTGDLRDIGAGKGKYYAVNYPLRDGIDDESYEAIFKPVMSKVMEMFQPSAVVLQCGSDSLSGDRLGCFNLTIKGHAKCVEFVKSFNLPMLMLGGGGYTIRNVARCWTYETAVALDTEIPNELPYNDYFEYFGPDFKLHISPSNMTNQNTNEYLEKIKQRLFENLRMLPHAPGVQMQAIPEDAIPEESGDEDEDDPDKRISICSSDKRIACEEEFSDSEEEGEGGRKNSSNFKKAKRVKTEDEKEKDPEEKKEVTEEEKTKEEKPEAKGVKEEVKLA
T4 sequence (Q92769 whole entry): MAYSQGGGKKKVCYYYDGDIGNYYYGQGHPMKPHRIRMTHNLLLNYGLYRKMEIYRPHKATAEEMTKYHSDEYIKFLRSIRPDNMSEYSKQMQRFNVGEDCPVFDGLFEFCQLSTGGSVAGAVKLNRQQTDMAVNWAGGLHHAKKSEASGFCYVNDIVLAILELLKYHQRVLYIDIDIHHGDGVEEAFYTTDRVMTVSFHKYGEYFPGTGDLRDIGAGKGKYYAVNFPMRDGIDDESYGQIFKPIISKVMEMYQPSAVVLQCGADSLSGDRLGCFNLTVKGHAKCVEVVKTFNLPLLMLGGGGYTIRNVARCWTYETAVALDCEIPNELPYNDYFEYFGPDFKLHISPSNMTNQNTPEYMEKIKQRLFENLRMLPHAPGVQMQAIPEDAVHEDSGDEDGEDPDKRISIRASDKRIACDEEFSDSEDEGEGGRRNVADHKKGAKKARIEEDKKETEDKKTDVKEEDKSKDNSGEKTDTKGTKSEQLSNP
T1 sequence (O15379 whole entry): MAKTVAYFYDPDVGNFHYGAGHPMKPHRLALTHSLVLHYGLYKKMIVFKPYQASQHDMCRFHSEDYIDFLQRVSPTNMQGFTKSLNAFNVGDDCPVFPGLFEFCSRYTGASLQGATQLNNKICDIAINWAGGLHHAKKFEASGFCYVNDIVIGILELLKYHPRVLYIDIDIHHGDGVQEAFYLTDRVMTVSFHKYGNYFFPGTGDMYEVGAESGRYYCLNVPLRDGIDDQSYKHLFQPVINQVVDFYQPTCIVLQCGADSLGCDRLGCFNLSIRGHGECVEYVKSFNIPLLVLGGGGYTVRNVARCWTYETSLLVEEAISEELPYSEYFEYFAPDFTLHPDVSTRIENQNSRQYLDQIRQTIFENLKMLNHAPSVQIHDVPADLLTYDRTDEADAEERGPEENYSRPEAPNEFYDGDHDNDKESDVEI
T1 sequence (Q9Y618 1-899 partner limits assumed): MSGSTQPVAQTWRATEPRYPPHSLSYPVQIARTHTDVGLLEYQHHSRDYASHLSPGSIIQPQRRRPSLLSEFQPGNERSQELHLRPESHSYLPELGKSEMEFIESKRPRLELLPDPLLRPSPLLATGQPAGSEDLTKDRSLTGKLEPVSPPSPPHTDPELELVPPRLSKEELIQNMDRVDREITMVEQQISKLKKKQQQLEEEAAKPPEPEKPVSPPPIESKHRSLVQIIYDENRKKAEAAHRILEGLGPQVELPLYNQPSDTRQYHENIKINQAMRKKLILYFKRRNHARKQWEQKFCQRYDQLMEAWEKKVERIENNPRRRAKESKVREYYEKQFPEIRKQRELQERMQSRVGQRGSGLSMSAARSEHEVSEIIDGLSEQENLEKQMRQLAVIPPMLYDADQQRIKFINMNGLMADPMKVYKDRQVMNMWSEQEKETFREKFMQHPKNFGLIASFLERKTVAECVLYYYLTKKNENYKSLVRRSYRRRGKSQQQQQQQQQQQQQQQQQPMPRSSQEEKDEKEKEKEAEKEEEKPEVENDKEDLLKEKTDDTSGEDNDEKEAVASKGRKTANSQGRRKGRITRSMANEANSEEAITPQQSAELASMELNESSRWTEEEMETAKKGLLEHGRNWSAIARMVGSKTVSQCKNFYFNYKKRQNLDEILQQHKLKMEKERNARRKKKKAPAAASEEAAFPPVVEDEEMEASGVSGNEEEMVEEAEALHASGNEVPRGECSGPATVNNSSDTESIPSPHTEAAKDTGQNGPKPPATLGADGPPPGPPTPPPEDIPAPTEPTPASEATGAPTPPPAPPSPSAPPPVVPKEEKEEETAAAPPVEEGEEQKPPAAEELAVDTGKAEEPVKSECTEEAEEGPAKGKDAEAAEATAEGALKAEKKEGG

CCC(=O)CCCCC[C@H](NC(=O)C1NC(=O)CC12CNC2)c1nnc(-c2cc3ccccc3nc2OC)o1 (some centres unmarked) [Compound 304]
EC50 [1, 7]: 17300 nM
IC50 [2]: 0.00323 µM
IC50 [3]: 0.00359 µM
IC50 [4, 8]: 20.8 µM
IC50 [5, 9]: 0.008 µM

CCC(=O)CCCCC[C@H](NC(=O)C1NC(=O)CC12CN(C(=O)OC(C)(C)C)C2)c1nnc(-c2cc3ccccc3nc2OC)o1 (some centres unmarked) [Compound 302]
EC50 [1, 7]: 4460 nM
EC50 [1, 10]: 7430 nM
IC50 [2]: 0.0376 µM
IC50 [3]: 0.0494 µM
IC50 [4, 8]: > 45 µM
IC50 [5, 9]: 0.121 µM

CCC(=O)CCCCC[C@H](NC(=O)[C@H]1CC12CCN(CC)CC2)c1ncc(-c2cc3cccnc3cc2OC)o1 [Compound 169]
EC50 ([1]; Homo sapiens, Jurkat, read-out: Karn EC50 (nM) 0.1% NHS, 0.1% normal human serum): 91 nM
EC50 ([1]; Homo sapiens, Jurkat, read-out: Karn EC50 (nM) 5% NHS, 5% normal human serum): 78 nM
IC50 [4]: 7.58 µM
IC50 [6]: 0.083 µM
IC50 [5]: 0.0022 µM

CCC(=O)CCCCC[C@H](NC(=O)[C@H]1CC[C@]2(CC1)OC(=O)c1ncccc12)c1ncc(-c2ccccc2)[nH]1 [Compound 377]
IC50 [2]: 0.0069 µM
IC50 [3]: 0.0471 µM
IC50 [4, 8]: 3.01 µM
IC50 ([6]; HDAC6, Fluor-de-Lys assay): 8.29 µM
IC50 [5, 9]: 0.233 µM

CCC(=O)CCCCC[C@H](NC(=O)C1NC(=O)CC12CN(C)C2)c1nnc(-c2cc3ccccc3nc2OC)o1 (some centres unmarked) [Compound 309]
EC50 [1, 7]: 1350 nM
EC50 [1, 10]: 1920 nM
IC50 [2]: 0.00719 µM
IC50 [3]: 0.00691 µM
IC50 [4, 8]: 24 µM
IC50 [5, 9]: 0.0193 µM

CCC(=O)CCCCC[C@H](NC(=O)[C@H]1CC12CCN(C)CC2)c1ncc(-c2ccc3cnc(Cl)cc3c2)[nH]1 [Compound 351]
IC50 [2]: 0.00132 µM
IC50 [3]: 0.00157 µM
IC50 [4, 8]: 5.83 µM
IC50 ([6]; HDAC6, Fluor-de-Lys assay): 1.47 µM
IC50 [5, 9]: 0.0071 µM

CCC(=O)CCCCC[C@H](NC(=O)[C@@H]1C[C@@]12CCN(C)C2)c1ncc(-c2cc3ccccc3nc2OC)[nH]1 [Compound 330]
EC50 [1, 7]: 309 nM
EC50 [1, 10]: 1150 nM
IC50 [4, 8]: 13.7 µM
IC50 ([6]; HDAC6, Fluor-de-Lys assay): 0.632 µM

CCC(=O)CCCCC[C@H](NC(=O)[C@H]1CC12CCCN(C)C2)c1ncc(-c2cc3ccccc3nc2OC)[nH]1 (some centres unmarked) [Compound 286]
EC50 [1, 7]: 116 nM
EC50 [1, 10]: 406 nM
IC50 [4, 8]: 3.87 µM
IC50 ([6]; HDAC6, Fluor-de-Lys assay): 0.342 µM

CCC(=O)CCCCC[C@H](NC(=O)C1CC12CCC(N(C)C)CC2)c1ncc(-c2cc3ccccc3nc2OC)[nH]1 (single isomer, unassigned) [Compound 128]
EC50 ([1]; read-out: Karn EC50 (nM) 0.1% NHS, 0.1% normal human serum): 442 nM
EC50 ([1]; read-out: Karn EC50 (nM) 5% NHS, 5% normal human serum): 1140 nM
IC50 [4]: 5.58 µM
IC50 [6]: 0.759 µM

CCCN1CCC2(CC1)C[C@@H]2C(=O)N[C@@H](CCCCCC(=O)CC)c1ncc(-c2cc3ccccc3nc2OC)[nH]1 [Compound 331]
EC50 [1, 7]: 154 nM
EC50 [1, 10]: 896 nM
IC50 [4, 8]: 2.03 µM
IC50 ([6]; HDAC6, Fluor-de-Lys assay): 0.49 µM

CCC(=O)CCCCC[C@H](NC(=O)[C@H]1CC12CCN(C)CC2)c1ncc(-c2ccn3ncnc3c2)[nH]1 [Compound 267]
IC50 [3]: 0.0467 µM
IC50 [4, 8]: 11.6 µM
IC50 ([6]; HDAC6, Fluor-de-Lys assay): 6.37 µM
IC50 [5, 9]: 0.17 µM

CCC(=O)CCCCC[C@H](NC(=O)[C@@H]1C[C@]12CCN(C)C2)c1ncc(-c2cc3ccccc3nc2OC)[nH]1 [Compound 329]
EC50 [1, 7]: 262 nM
EC50 [1, 10]: 1140 nM
IC50 [4, 8]: 7.04 µM
IC50 ([6]; HDAC6, Fluor-de-Lys assay): > 0.15 µM

CCC(=O)CCCCC[C@H](NC(=O)C1CC12CCN(CC)CC2)c1nc(-c2ccc(F)cc2)[nH]c1-c1cccc(OC)c1 (some centres unmarked) [Compound 246]
EC50 [1, 7]: 1940 nM
EC50 [1, 10]: 3770 nM
IC50 [2]: 0.155 µM
IC50 [3]: 0.177 µM
IC50 [5, 9]: 0.769 µM

CCC(=O)CCCCC[C@H](NC(=O)[C@H]1CC12CCN(C)CC2)c1ncc(-c2cc3ccccc3nc2OC)[nH]1 (single isomer, unassigned) [Compound 321]
EC50 [1, 7]: 27 nM
EC50 [1, 10]: 83 nM
IC50 [4, 8]: 3.38 µM
IC50 ([6]; HDAC6, Fluor-de-Lys assay): 0.158 µM

CCC(=O)CCCCC[C@H](NC(=O)[C@@H]1CC12CCN(C(N)=O)CC2)c1ncc(-c2cc3ccccc3nc2OC)[nH]1 (single isomer, unassigned) [Compound 318]
EC50 [1, 7]: 861 nM
EC50 [1, 10]: 4600 nM
IC50 [4, 8]: 1.2 µM
IC50 ([6]; HDAC6, Fluor-de-Lys assay): 0.551 µM

CCC(=O)CCCCC[C@H](NC(=O)[C@H]1CC12CCN(CC)CC2)c1ncc(-c2cc3ccccc3nc2O)[nH]1 [Compound 291]
EC50 [1, 7]: 192 nM
EC50 [1, 10]: 295 nM
IC50 [4, 8]: > 15 µM
IC50 ([6]; HDAC6, Fluor-de-Lys assay): 0.741 µM

CCC(=O)CCCCC[C@H](NC(=O)[C@H]1CC12CCN(Cc1ccccc1)CC2)c1ncc(-c2cc3ccccc3nc2OC)[nH]1 [Compound 293]
EC50 [1, 7]: 75 nM
EC50 [1, 10]: 175 nM
IC50 [4, 8]: 8.2 µM
IC50 ([6]; HDAC6, Fluor-de-Lys assay): 0.727 µM
